Measurements as given in paper PMC11247486, “Improving the In Vivo Stability of [^52Mn]Mn(II) Complexes with 18-Membered Macrocyclic Chelators for PET Imaging” (Journal of Medicinal Chemistry, 2024).
Where two headings read alike, the source gives them in different places.

Tests used:
[1] = 1H NMR relaxometry (relaxivity as a function of pH); type: physicochemical; details: pH 3, 61 MHz, 25 °C, after dissociation of the complexes
Description: The studies reported by Branco assumed the formation of a protonated [Mn(HL)]^3+ species for the Mn-PYAN complex characterized by protonation constant log KMnLH = 5.19 (KMnLH = [MnHL]/[MnL] × [H^+]).[42] However, our pH-potentiometric data could be fitted very well without considering the formation of protonated species or hydroxo-complexes. In order to confirm that the equilibrium model used to fit the pH-potentiometric data was correct, we measured the relaxivity (r1p) of aqueous solutions of the complexes as a function of pH (Figure 4). Relaxivity measures the ability of a paramagnetic solute to enhance the longitudinal relaxation rate of solvent water molecules, normalized for a 1 mM concentration of the paramagnetic ion.[45] The r1p values measured around neutral pH values (0.83 and 1.40 mM^–1 s^–1 at 61 MHz and 25 °C for Mn-PYAN and Mn-CHXPYAN, respectively) are typical of complexes that lack one or more water molecules in the inner coordination sphere, the observed relaxivity being the result of the outer-sphere contribution.[46] Relaxivity is fairly constant in the pH range of 6–9 but increases below pH ∼ 6 due to complex dissociation, reaching a relaxivity of 6.00 mM^–1 s^–1 at pH 3, 61 MHz, and 25 °C that is characteristic of the [Mn(H2O)6]^2+ complex.[47] The relaxivity profile matches the speciation diagrams calculated using the equilibrium constants obtained by pH potentiometry very well, which provides support for the equilibrium model used to fit the potentiometric data. It is worth noting that complex dissociation takes place at a lower pH for Mn-CHXPYAN than for Mn-PYAN, as expected, considering their pMn values.
The relaxivity values were calculated from the longitudinal relaxation time of H2O protons (T1) measured at 61 MHz on a Stelar relaxometer connected to a Bruker WP80 NMR electromagnet adapted to variable-field measurements (15–80 MHz proton Larmor frequency). […] The longitudinal relaxation time was measured with the “inversion recovery” method (180°–τ–90°) by using 12 different τ values with a typical 90° pulse width of 10.7 μs, 4 scans. […]

[2] = pH-potentiometric titrations, ligand protonation constants; type: physicochemical; details: 0.15 M NaCl, 25°C
Method: Chelator protonation constants (log Ki^H) defined by eq 1 were determined using pH-potentiometric titrations, which afforded four protonation constants for each chelator attributed to the protonation of the amine N atoms (Table 2, and standard deviations are shown in parentheses). [drawing 1] 1 where i = 1, 2...4. The first two protonation constants adopt nearly identical values for both chelators, while the third and fourth protonation constants are much lower for CHXPYAN than for PYAN, which is consistent with the results obtained by Jackels et al.[25] The high rigidity of CHXPYAN likely forces the protonated amines to be placed at a shorter distance than in PYAN, reducing the values of log K3^H and log K4^H for the cyclohexyl derivative due to electrostatic effects. […] The structurally related 18-membered macrocycle 18-ane-N6 is characterized by a higher basicity compared with PYAN and CHXPYAN, as expected due to the increased number of amine N atoms and its higher flexibility.[43]
(§1) The protonation constants of PYAN and CHXPYAN and the stability constants of Mn(II) complexes were determined by pH-potentiometric titrations. The metal-to-ligand concentration ratio was 1:1 (the concentration of the ligand was generally 0.002 M). For the pH measurements and titrations, a Metrohm 888 Titrando titration workstation and Metrohm-6.0234.110 combined electrode was used. Equilibrium measurements were carried out at a constant ionic strength (0.15 M NaCl) in 6 mL samples at 25 °C. The solutions were stirred, and N2 was bubbled through them. The titrations were made in the pH range of 1.7–12.0. KH-phthalate (pH = 4.005) and borax (pH = 9.177) buffers were used to calibrate the pH meter. For the calculation of [H^+] from the measured pH values, the method proposed by Irving et al. was used as follows.[59] A 0.01 M HCl solution was titrated with a standardized NaOH solution at 0.15 M NaCl ionic strength. The differences (A) between the measured (pHread) and calculated pH (−log[H^+]) values were used to obtain the equilibrium H^+ concentration from the pH values measured in the titration experiments (A = 0.04). For the equilibrium calculations, the stoichiometric water ionic product (pKw) was also needed to calculate the [OH^–] values under basic conditions. The VNaOH – pHread data pairs of the HCl–NaOH titration obtained in the pH range of 10.5–12.0 were used to calculate the pKw value (pKw = 13.77). The protonation and stability constants were calculated with the PSEQUAD program.[60]

[3] = pH-potentiometric titrations, stability constants of the Mn(II) complexes; type: physicochemical; details: 0.15 M NaCl, 25°C
Method: The stability constants of the Mn(II) complexes with PYAN and CHXPYAN defined by eq 2 were also determined through pH-potentiometric titrations. [drawing 2] 2
as §1

[4] = Transmetalation (dissociation) kinetics of the Mn(II) complexes with Cu2+; type: physicochemical; details: 0.15 M NaCl, 25 °C
Method: There is a wide consensus among the coordination chemistry community that kinetic inertness is more important for the safe use of metal complexes for imaging applications than thermodynamic stability.[8],[49],[50] Thus, we conducted a detailed investigation of the transmetalation kinetics of the Mn-PYAN and Mn-CHXPYAN complexes, by following their exchange reactions with Cu^2+ in the pH range of 2.5–4.5 (eq 3). [drawing 3] 3
All reactions were carried out in the presence of a large excess of Cu^2+ in order to guarantee the pseudo-first-order kinetic conditions. The transmetalation of Mn-PYAN in the pH range ∼2.0–4.5 is very fast, and thus the rates of the reactions were measured using the stopped-flow technique. Conversely, the exchange reactions of the Mn-CHXPYAN complex are slow and could be studied by using conventional methods. The transmetalation reactions of Mn-PYAN and Mn-CHXPYAN were monitored by following the formation of the corresponding Cu(II) complexes at 295 nm.
The kd values increase upon increase in [H^+] and are independent of the concentration of Cu^2+ as it was found for Mn-PCTA, Mn-PC3AM, and Mn-bispidine complexes.[49],[51] […] The increase in the kd values with increasing H^+ concentration can be interpreted in terms of the extremely slow spontaneous (k0, eq 4) and the proton-assisted (k*[Mn(HL), eq 6) dissociation of Mn(II) complexes. The saturation behavior of the plots of kd versus [H^+] (Figure 5) is characteristic for the equilibrium formation and the accumulation of the *[Mn(HL)] intermediate characterized by the *KH protonation constant (eq 5). The analysis of the rate constants obtained for Mn-CHXPYAN indicates a second-order dependence of kd on [H^+], which can be explained by the proton-assisted dissociation of the *[Mn(HL)] intermediate (k^H*[Mn(HL)], eq 7). [drawing 4] 4 [drawing 5] 5 [drawing 6] 6 [drawing 7] 7
In the presence of excess of the exchanging ion, the transmetalation can be treated as a pseudo-first-order process, and the rate of reactions can be expressed with eq 8, where kd is a pseudo-first-order rate constant and [MnL]t is the total concentration of the complex. [drawing 8] 8
Through consideration of all the possible pathways, the rate of the transmetalation of Mn-PYAN and Mn-CHXPYAN with Cu^2+ can be expressed by eq 9 [drawing 9] 9 Considering the total concentration of the Mn(II) complex ([MnL]t = [MnL] + [*Mn(HL)], as well as the equation defining the protonation constant for the formation of the *[Mn(HL)] intermediate (eq 5) and eq 8, the pseudo-first-order rate constant can be expressed as follows [drawing 10] 10 where k1 = k*[Mn(HL)] × *KH and k2 = k^H*[Mn(HL)] × *KH. The rate and protonation constants characterizing the transmetalation of Mn-PYAN and Mn-CHXPYAN with Cu^2+ have been calculated by fitting the kd values presented in Figure 5 to eq 10 and the values obtained are compared with the corresponding values of Mn-DOTA, Mn-DO3A, Mn-PCTA, Mn-PC3AM^H, and Mn-bispidine in Table 3.
Rates of the metal exchange reactions of Mn-PYAN and Mn-CHXPYAN with Cu^2+ were measured by spectrophotometry by following the formation of the related Cu(II) complexes at 295 nm with an Applied Photophysics DX-17MV stopped-flow instrument and PerkinElmer Lambda 365 UV–vis spectrophotometer using 1.0 cm cells, respectively. The concentration of Mn-PYAN and Mn-CHXPYAN was 1.0 × 10^–4 M, whereas the concentration of Cu^2+ was 10 and 20 times higher in order to guarantee pseudo-first-order conditions. The temperature was maintained at 25 °C and the ionic strength of the solutions was kept constant with 0.15 M NaCl. The exchange rates were studied in the pH range of ca. 2.0–4.5. To keep the pH values constant, monochloroacetic acid (pH range 2.0–3.3), 1,4-dimethylpiperazine (pH range 3.3–4.1), and N-methylpiperazine (pH range 4.1–4.5) buffers were used (0.01 M). […]

[5] = cited from earlier work
[6] = cited from earlier work; remark: listed apart in the source

| SMILES | relaxivity [1] [mM^–1 s^–1] | log K1^H [2] | log K2^H [2] | log K3^H [2] | log K4^H [2] | pMn ([3]; pMn = −log[Mn]free when [Mn^2+] = [L] = 10 μM at pH = 7.4) | log KMnL ([3]; stability constant of the Mn(II) complex) | k1 ([4]; Mn(II) complex of the chelator) [M^–1 s^–1] | kd at pH = 7.4 ([4]; Mn(II) complex of the chelator) | log*KH ([4]; protonation constant of the *[Mn(HL)] intermediate) | log K1^H ([5]; 0.1 M KNO3) | log K2^H ([5]; 0.1 M KNO3) | log K3^H ([5]; 0.1 M KNO3) | log K4^H ([5]; 0.1 M KNO3) | log K1^H ([5]; 0.2 M KCl) | log K2^H ([5]; 0.2 M KCl) | log K3^H ([5]; 0.2 M KCl) | log K4^H ([5]; 0.2 M KCl) | log KMnL ([6]; 0.1 M KNO3) | log KMnL ([6]; 0.2 M KCl) |
| --- | --- | --- | --- | --- | --- | --- | --- | --- | --- | --- | --- | --- | --- | --- | --- | --- | --- | --- | --- | --- |
| O.O.O.O.O.O.[Mn+2] [[Mn(H2O)6]^2+] | 6.00 | – | – | – | – | – | – | – | – | – | – | – | – | – | – | – | – | – | – | – |
| c1cc2nc(c1)CNCCNCc1cccc(n1)CNCCNC2 [PYAN, 3,6,10,13-tetraaza-1,8(2,6)-dipyridinacyclotetradecaphane] | – | 9.02(1) | 8.27(1) | 6.06(1) | 5.18(2) | 7.18 | 11.93(3) | 827 ± 54 | 3.3 × 10^–5 s^–1 | 2.23 (4) | 8.99 | 8.22 | 6.03 | 5.34 | 9.13 | 8.32 | 6.12 | 5.24 | 11.79 | 12.5 |
